Data: US20240261243A1, “NITRIC OXIDE DONORS, COMPOSITIONS, AND METHODS OF USE” (priority 2020, published 2024)

Tested on: P. aeruginosa (PAK)
Test: Time-kill assay in CAMHB at 37° C.
Format: cell-based, Pseudomonas aeruginosa
Conditions: 4 mg/ml BIOC76 alone, broth
Description: In this study, we established the viability of P. aeruginosa in a broth at 37° C. when exposed to BIOC76 alone compared to BIOC76+gallium citrate. […] To conduct this experiment, we suspended P. aeruginosa (PAK) in CAMHB to a final concentration of 10^6 CFU/ml. Bacteria were exposed to BIOC76, GaCi, or BIOC76+GaCi and incubated at 37° C.

**Q.** Which “bacterial survival over 24 h” value does the source give for O=NN(O)N(CCO)CC1OC2OC3C(CN(CCO)N(O)N=O)OC(OC4C(CN(CCO)N(O)N=O)OC(OC5C(CN(CCO)N(O)N=O)OC(OC6C(CN(CCO)N(O)N=O)OC(OC7C(CN(CCO)N(O)N=O)OC(OC8C(CN(CCO)N(O)N=O)OC(OC1C(O)C2O)C(O)C8O)C(O)C7O)C(O)C6O)C(O)C5O)C(O)C4O)C(O)C3O (stereo not shown) [BIOC76] here?
**A.** can recover after 24 h
